Results published in ChEMBL document CHEMBL4673337, “Phenolic Constituents of the Roots of Rhamnoneuron balansae with Senolytic Activity” (J Nat Prod, 2020).
The source made the active and inactive calls. The calls are words filed in the database; no cut-off is given here.

How the values were obtained:
NHDF [1] = assay: Cytotoxicity against human dermal fibroblast assessed as reduction in cell viability at 20 uM after 3 days by MTT assay; format: cell-based; conditions: 72 h, time 3 day
NHDF [2] = assay: Senolytic activity in 35 passages senescent human dermal fibroblast cells assessed as reduction cell viability at 20 uM after 3 days by MTT assay relative to control; format: functional
[3] = target: T1, Cyclin-dependent kinase inhibitor 2A (Homo sapiens) (UniProt P42771); assay: Inhibition of GFP-tagged p16INK4A (unknown orgin) expressed in human dermal fibroblast at 20 uM after 24 hrs by renilla/firefly dual-luciferase reporter assay relative to control; format: cell-based; conditions: NHDF
T1 sequence (whole entry): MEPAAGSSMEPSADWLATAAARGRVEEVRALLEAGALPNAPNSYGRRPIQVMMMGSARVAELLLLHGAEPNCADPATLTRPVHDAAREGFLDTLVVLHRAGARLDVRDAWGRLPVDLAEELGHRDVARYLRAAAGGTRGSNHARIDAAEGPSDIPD

SMILES	Activity (NHDF [1])	also measured
COc1c(CCc2cccc(O)c2)oc2ccccc2c1=O	Non-Toxic	
COc1cc(CCc2oc3ccccc3c(=O)c2O)ccc1O	Non-Toxic	
O=C1c2c(cc(O[C@@H]3O[C@H](CO)[C@@H](O)[C@H](O)[C@H]3O)c3c2O[C@H](c2ccc(O)cc2)[C@H]3c2cc(O)cc(O)c2)O[C@H](c2ccc(O)c(O)c2)[C@H]1O	Non-Toxic	
COc1cc(CCc2oc3ccccc3c(=O)c2OC)ccc1O	Non-Toxic	
O=C1c2c(cc(O)c3c(-c4cc(O)cc(O)c4)c(-c4ccc(O)cc4)oc23)O[C@@H](c2ccc(O)cc2)[C@@H]1O	Non-Toxic	Activity (NHDF [2]; time 3 day): 34%; inhibition [3]: 32%
O=C1c2c(cc(O)c3c2O[C@H](c2ccc(O)cc2)[C@H]3c2cc(O)cc(O)c2)O[C@@H](c2ccc(O)cc2)[C@@H]1O	Non-Toxic	
O=C1c2c(cc(O)c3c2O[C@H](c2ccc(O)cc2)[C@H]3c2cc(O)cc(O)c2)O[C@@H](c2ccc(O)c(O)c2)[C@@H]1O	Non-Toxic	
COc1cc(CC[C@@H]2CC(=O)c3ccccc3O2)ccc1O	Non-Toxic	Activity (NHDF [2]; time 3.0 day): Active
O=C1C[C@@H](CCc2ccc(O)cc2)Oc2ccccc21	Non-Toxic	Activity (NHDF [2]; time 3.0 day): Active
O=C1C[C@@H](CCc2cccc(O)c2)Oc2ccccc21	Non-Toxic	
O=C1c2c(cc(O)c3c2O[C@H](c2ccc(O[C@@H]4O[C@H](CO)[C@@H](O)[C@H](O)[C@H]4O)cc2)[C@H]3c2cc(O)cc(O)c2)O[C@@H](c2ccc(O)c(O)c2)[C@@H]1O	Non-Toxic	
O=C1c2c(cc(O[C@@H]3O[C@H](CO)[C@@H](O)[C@H](O)[C@H]3O)c3c2O[C@H](c2ccc(O)cc2)[C@H]3c2cc(O)cc(O)c2)O[C@@H](c2ccc(O)c(O)c2)[C@@H]1O	Non-Toxic	
